Laboratory results reported in paper PMC6934184, “Selective DNA-PKcs inhibition extends the therapeutic index of localized radiotherapy and chemotherapy” (The Journal of Clinical Investigation, 2019).

Biological target: T1, NUAK1 (ARK5) (Homo sapiens, UniProt O60285)
T1 construct: purchased Thermo Fisher Scientific (Life Technologies) SelectScreen
Experiment: SelectScreen Adapta
Assay type: biochemical
Procedure: The in vitro kinase selectivity of NU5455 was determined using the SelectScreen Broad Assay Panel (Thermo Fisher Scientific) involving activity and binding assays (Supplemental Table 1). […] Class IA PI3Ks were measured using the p85α subunit.
Kinase [ATP] % Assay Kinase [ATP] % Assay Kinase [ATP] % Assay Kinase [ATP] % Assay […]
SNF1LK2 Km app 26.6 Z MINK1 Km app 4.6 Z NUAK1 (ARK5) Km app 1.2 A AMPK (A2/B2/G2) n/a -2.6 L […]
SGK (SGK1) Km app 8.5 Z MAP4K2 (GCK) Km app 2.7 Z TLK2 n/a -0.3 L STK38 (NDR) n/a -5.9 L
MERTK (cMER) Km app 8.3 Z CDK2/cyclin A Km app 2.7 Z TGFBR1 (ALK5) n/a -0.4 L MATK (HYL) Km app -6.3 Z
FYN Km app 8.3 Z EPHA1 Km app 2.7 Z CLK3 Km app -0.5 Z ABL1 E255K Km app -6.6 Z
TEC n/a 8.1 L CDK2/cyclin E1 n/a 2.7 L MAP3K14 (NIK) n/a -0.5 L STK17A (DRAK1) n/a -6.6 L
KIT V654A n/a 8.1 L TESK2 n/a 2.7 L AKT3 (PKB gamma) Km app -0.5 Z JAK2 JH1 JH2 Km app -6.7 Z
ROS1 Km app 8.0 Z SPHK1 Km app 2.7 A MAP3K9 (MLK1) Km app -0.5 Z PRKACB (PRKAC beta) n/a -6.8 L
FGFR3 K650E Km app 7.9 Z AMPK A2/B1/G1 Km app 2.6 Z IKBKB (IKK beta) Km app -0.6 Z PDGFRA (PDGFR alpha) Km app -6.8 Z
RAF1 (cRAF) Y340D Y341D 100 7.9 Z DYRK3 Km app 2.6 Z CAMK2A (CaMKII alpha) Km app -0.6 Z NEK9 Km app -7.2 Z
PI4KA (PI4K alpha) 10 7.8 A CSNK1D (CK1 delta) Km app 2.6 Z PRKCB1 (PKC beta I) Km app -0.7 Z PDK1 Km app -7.3 Z
HIPK2 Km app 7.8 Z ACVR2A n/a 2.5 L TTK n/a -0.7 L RPS6KB1 (p70S6K) Km app -7.8 Z […]

T1 sequence (O60285 whole entry): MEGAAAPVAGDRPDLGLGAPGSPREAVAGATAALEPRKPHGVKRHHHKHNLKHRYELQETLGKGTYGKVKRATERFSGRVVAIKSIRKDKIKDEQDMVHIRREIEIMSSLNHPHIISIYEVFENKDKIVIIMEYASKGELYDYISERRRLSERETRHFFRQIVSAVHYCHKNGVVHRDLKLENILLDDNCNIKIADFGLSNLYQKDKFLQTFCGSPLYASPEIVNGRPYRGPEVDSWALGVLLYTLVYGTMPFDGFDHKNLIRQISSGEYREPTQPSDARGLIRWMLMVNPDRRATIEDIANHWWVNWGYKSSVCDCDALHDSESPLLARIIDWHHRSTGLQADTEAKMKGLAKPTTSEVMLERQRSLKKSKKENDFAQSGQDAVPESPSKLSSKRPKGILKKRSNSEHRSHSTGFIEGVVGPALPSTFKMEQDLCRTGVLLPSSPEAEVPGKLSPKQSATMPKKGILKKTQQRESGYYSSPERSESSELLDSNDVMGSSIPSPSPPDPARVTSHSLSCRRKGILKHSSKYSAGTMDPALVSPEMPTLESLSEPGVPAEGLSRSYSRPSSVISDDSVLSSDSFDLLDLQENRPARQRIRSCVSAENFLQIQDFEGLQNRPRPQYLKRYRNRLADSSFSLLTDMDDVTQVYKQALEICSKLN

For `CN(C(=O)CN1CCOCC1)c1ccc2sc3c(-c4cccc5c(=O)cc(N6CC7CCC(C6)O7)oc45)cccc3c2c1` [NU5455], the inhibition at 1 µM was 1.2%.
